Assays:
human panelists [1] = assay: Paired comparison test, sweet flavor potentiation with sucrose or HFCS as the sweetener; assay type: in vivo
Procedure: (§1) Test samples containing experimental compounds are presented in pairs to the panelist and they are asked to determine which of the sample is sweeter. […] A group of 10-16 or more panelists participated in each test. Subjects refrained from eating or drinking (except water) for at least 1 hour prior to the test. Subjects rinsed with water several times to clean the mouth.
(§2) Taste tests were performed with sucrose or HFCS as the sweetener in the presence or absence of compound. A 0.2% stock solution of compound in water with sodium bicarbonate was prepared and then this stock solution was diluted in the final sample to achieve the targeted final concentration of compound. For the sample evaluated at pH 2.8 the pH of the solution is decreased to about pH 2.8 using citric acid. Taste samples were also prepared in a low sodium phosphate buffer (pH 7.1; “LSB”) lacking sucrose or HFCS to evaluate the taste of the compound alone. Low sodium phosphate buffer consists of 0.3 mM KCl, 0.5 mM Na2HPO4, and 0.175 mM KH2PO4. Sample volumes are usually 20 ml.
(§3) In one paired comparison test, the panelist is presented with two different samples and asked to identify the sample which is sweeter. The samples within a paired comparison test are presented in a randomized, counterbalanced order. Panelists have up to a 1 minute delay between taste tests to clear the mouth of any tastes.
(§4) Binomial probability tables are used to determine the probability of the correct number of responses occurring for each test at alpha=0.05.

human panelists [2] = assay: Paired comparison test, taste of the compound alone in low sodium phosphate buffer (LSB); assay type: in vivo
Procedure: as §1, §2, §3, §4

human panelists [3] = assay: Sucrose potentiation in Iced Coffee product prototype, paired comparison test; assay type: in vivo; conditions: Table 19: Iced Coffee, 8% Sucrose vs 4% Sucrose + 7.6 μM Compound K2; n = 33 (11 panelists × 3 reps)
Procedure: All samples were made in an Iced Coffee formulation consisting of Brewed Coffee, 2% milk, Sucrose and water. The samples were prepared using a 0.2% Compound stock made with 0.2% sodium bicarbonate and water. Tests samples are presented in pairs to the panelists and they are asked to determine which of the sample is sweeter.
as §3, §4

SMILES | melting point | Sample selected as sweeter by panelists, Total (human panelists [1]; Table 1-a: 12% Sucrose vs 6% Sucrose + 21 μM Compound Q1, pH 7.1, n = 30 (15 panelists × 2 reps)) | Sample selected as sweeter by panelists, Total (human panelists [1]; Table 1-b: 12% Sucrose vs 6% Sucrose + 7.9 μM Compound Q1, pH 2.8, n = 42 (14 panelists × 3 reps)) | Sample selected as sweeter by panelists, Total (human panelists [1]; Table 4-a: 12% Sucrose vs 6% Sucrose + 12.7 μM Compound J2, pH 7.1, n = 51 (17 panelists × 3 reps)) | Sample selected as sweeter by panelists, Total (human panelists [1]; Table 4-b: 12% Sucrose vs 6% Sucrose + 12.7 μM Compound J2, pH 2.8, n = 45 (15 panelists × 3 reps)) | Sample selected as sweeter by panelists, Total (human panelists [1]; Table 7-a: 11% Sucrose vs 6% Sucrose + 12.7 μM Compound K2, pH 7.1, n = 36 (12 panelists × 3 reps)) | Sample selected as sweeter by panelists, Total (human panelists [1]; Table 7-b: 12% Sucrose vs 6% Sucrose + 7.6 μM Compound K2, pH 2.8, n = 36 (18 panelists × 2 reps)) | Sample selected as sweeter by panelists, Total (human panelists [1]; Table 10: 12% Sucrose vs 6% Sucrose + 12.7 μM Compound L2, pH 7.1, n = 42 (14 panelists × 3 reps)) | Sample selected as sweeter by panelists, Total (human panelists [1]; Table 13: 12% Sucrose vs 6% Sucrose + 11.9 μM Compound B1, pH 7.1, n = 34 (17 panelists × 2 reps)) | Sample selected as sweeter by panelists, Total (human panelists [1]; Table 16: 10% Sucrose vs 6% Sucrose + 9.2 μM Compound F3, pH 7.1, n = 33 (11 panelists × 3 reps)) | Sample selected as sweeter by panelists, Total (human panelists [2]; Table 3: 1% Sucrose vs LSB + 26.3 μM Compound Q1, n = 26 (13 panelists × 2 reps)) | Sample selected as sweeter by panelists, Total (human panelists [2]; Table 6: 1% Sucrose vs LSB + 20.4 μM Compound J2, n = 26 (13 panelists × 2 reps)) | Sample selected as sweeter by panelists, Total (human panelists [2]; Table 9: 1% Sucrose vs LSB + 12.7 μM Compound K2, n = 51 (17 panelists × 2 reps)) | Sample selected as sweeter by panelists, Total (human panelists [2]; Table 12: 1% Sucrose vs LSB + 12.7 μM Compound L2, n = 36 (12 panelists × 3 reps)) | Sample selected as sweeter by panelists, Total (human panelists [2]; Table 15: 1% Sucrose vs LSB + 11.9 μM Compound B1, n = 45 (15 panelists × 3 reps)) | Sample selected as sweeter by panelists, Total (human panelists [2]; Table 18: 1% Sucrose vs LSB + 9.2 μM Compound F3, n = 30 (15 panelists × 2 reps)) | Sample selected as sweeter by panelists, Total (human panelists [3])
NC1=NS(=O)(=O)Nc2cccc(OC[C@H]3CCCN(C(=O)c4ccncc4)C3)c21 [Example 3, (S)-(3-(((4-amino-2,2-dioxido-1H-benzo[c][1,2,6]thiadiazin-5-yl)oxy)methyl)piperidin-1-yl)(pyridin-4-yl)methanone] | > 250 °C |  |  |  |  |  |  |  |  |  |  |  |  |  |  |  | 
OC[C@H]1O[C@@](CO)(O[C@H]2O[C@H](CO)[C@@H](O)[C@H](O)[C@H]2O)[C@@H](O)[C@@H]1O [Sucrose, sucrose] |  | 18 | 24 | 28 | 20 | 20 | 21 | 19 | 19 | 16 | 14 | 14 | 29 | 19 | 19 | 16 | 16
